Source: article PMC8138767, “Intrinsically disordered substrates dictate SPOP subnuclear localization and ubiquitination activity” (The Journal of Biological Chemistry, 2021)
Entries after “also recorded” stand apart in the source; their conditions may differ.

What was measured:
Format in all cases: cell-based
[1] = tested on: HeLa cells; assay: Immunofluorescence: subcellular localization / phase separation of the protein itself; conditions: confocal fluorescence microscopy
Description: (§1) HeLa cells were cultured under sterile conditions with Dulbecco’s modified Eagle’s medium (DMEM) (Gibco) supplemented with 10% fetal bovine serum and antibiotics/antimycotics (Gibco) (see Table S5 for key reagents and resources). T-REx-293 cells (cat. no. R710-07) were obtained from Invitrogen. Cells were grown on DMEM supplemented with 10% fetal bovine serum (Gibco), GlutaMax (Gibco), and Penicillin-Streptomycin (Gibco) and kept under selection by 5 μg/ml blasticidin. All cells were grown at 37 °C under 5% CO2 and were mycoplasma free at the time the experiments were performed.
(§2) A plasmid encoding full-length human Pdx1 (amino acids 1-283) in pcDNA3.1 with a C-terminal GFP tag was purchased from GenScript. Full-length mouse SPOP (identical to the human sequence) with a V5 epitope tag in pcDNA3 was generated previously ([21]). The coding sequence for full-length mouse SPOP was inserted into pcDNA4/TO/myc (Invitrogen) for the T-REx system. pcDNA3-myc-CUL3 (cat no. 19893) and pcDNA–HA2–ROC1 (Rbx1) (cat no. 19897) were obtained from Addgene. pcDNA3 containing His-ubiquitin was a gift from Wenyi Wei.
For immunofluorescence experiments, 0.5 × 10^6 cells were seeded on borosilicate glass coverslips in 6-well plates. After 24 h, cells were transfected with 400 ng of each plasmid using the Qiagen Effectene transfection reagent according to the manufacturer protocol. 24 h after transfection, the cells were treated with 4% paraformaldehyde in PBS for 30 min at RT. Cells were permeabilized with 0.1% Triton X-100 in PBS (PBST) for 5 min at 21 °C, followed by blocking in 0.5% BSA in PBST for 1 h at 21 °C. Signal from GFP-tagged proteins was observed directly. […] All images were analyzed and prepared in Fiji ([53]).
All immunofluorescence data were averaged over three biological replicates. […] Next, the raw GFP intensity data points (one data point per cell analyzed) were plotted to generate a violin plot distribution. […]

[2] = tested on: SPOP-mediated ubiquitination in T-REx-293 cells; assay: SPOP-mediated ubiquitination of Pdx1 variants (Ni-NTA pulldown, immunoblot); conditions: SPOP–myc and GFP–Pdx1 coexpressed 24 h, then 20 μM MG132 or DMSO for 4 h, immunoblot (Fig. 6C)
Description: We next sought to determine whether SPOP-driven ubiquitination of Pdx1 could occur outside of previously implicated droplets. Given the SPOP relocalization phenotype that we observe in cells that express SPOP and Pdx1, we hypothesized that the ubiquitination activity was occurring in the diffuse nucleoplasm and that optimal activity requires both SB sites. To test this hypothesis, we performed in cell ubiquitination assays with GFP–Pdx1 variants. SPOP–myc and GFP–Pdx1 were coexpressed for 24 h in T-REx-293 cells, followed by a 4-h treatment with 20 μM MG132 or dimethyl sulfoxide. Proteins modified with His-ubiquitin were enriched by pulldown on nickel-nitrilotriacetic acid (Ni-NTA) resin.
as §2
Ubiquitination and Western blots
T-REx-293 cells (Invitrogen) were seeded at a density of 0.8 × 10^6 per well in 6-well plates (tissue culture–treated plates (cat. no 3516, Corning)). After 24 h, cells were transfected with plasmids encoding Pdx1–GFP, SPOP–myc, His–ubiquitin, HA–Rbx1, and myc–CUL3 (as indicated) using the Qiagen Effectene transfection reagent. 24 h after transfection, the cells were treated with either dimethyl sulfoxide or 20 μM MG132 for 4 h before being harvested. Cells were lysed in buffer A (6 M guanidine HCl, 100 mM sodium phosphate, pH 8.0, and 10 mM imidazole). The lysates were sonicated, cleared, and incubated with Ni-NTA Agarose (Qiagen) for 3 h at RT, followed by 16 h at 4 °C. The beads were washed twice with buffer A and twice with a buffer composed of 1:3 buffer A:buffer T1 (buffer T1: 25 mM Tris HCl, pH 8.0, and 20 mM imidazole). The beads were finally transferred to buffer T1 and then boiled in the SDS-PAGE loading buffer containing 300 mM imidazole. Pdx1 stability assays were performed as described above, except that the cells were not treated with MG132. Cells expressing Pdx1–GFP or a variant were harvested 28 h after transfection, resuspended in 2x SDS-loading dye, and boiled for 5 min before SDS-PAGE analysis.
All proteins were resolved by SDS-PAGE. Separated proteins were analyzed by immunoblotting using either the ECL or the ECL Select Western blotting detection reagents (Amersham). The antibodies used were mouse anti-Pdx1 used at 1:500 for pulldown or 1:2000 for inputs (clone 26771, MAB2419, R&D Systems), mouse anti-myc (1:250, clone 9E10, Santa Cruz Biotechnology), and rabbit anti-GAPDH (1:8000, clone EPR1689, Abcam). horseradish peroxidase-conjugated secondary antibodies were sourced from Jackson ImmunoResearch Laboratories and used at 1:20,000 dilution (goat anti-rabbit IgG, 111-035-003 and goat anti-mouse, 115-035-003).

[3] = tested on: V5-SPOP in HeLa cells; assay: Immunofluorescence: V5-SPOP localization on coexpression of GFP–Pdx1 variants; conditions: 24 h after transfection; for V5-SPOP localization, high Pdx1 expression: cells expressing GFP–Pdx1 at high levels (high GFP intensity); for V5-SPOP localization, low Pdx1 expression: cells expressing GFP–Pdx1 at low levels; for SPOP relocalization from nuclear speckles by Pdx1 variant: coexpressed with V5-SPOP, three biological replicates
Description: as §1, §2
For immunofluorescence experiments, 0.5 × 10^6 cells were seeded on borosilicate glass coverslips in 6-well plates. After 24 h, cells were transfected with 400 ng of each plasmid using the Qiagen Effectene transfection reagent according to the manufacturer protocol. 24 h after transfection, the cells were treated with 4% paraformaldehyde in PBS for 30 min at RT. Cells were permeabilized with 0.1% Triton X-100 in PBS (PBST) for 5 min at 21 °C, followed by blocking in 0.5% BSA in PBST for 1 h at 21 °C. Signal from GFP-tagged proteins was observed directly. Cells were stained in primary antibodies diluted in 0.5% BSA in PBST overnight at 4 °C with mouse anti-SC-35 (1:300, ab11826; Abcam) and chicken anti-V5 (1:300, NB600-379; Novus Biologicals). Cells were incubated with secondary antibodies for 2 h at 21 °C. The secondary antibodies used were goat anti-mouse Alexa Fluor 647 (1:250, A-21235; Thermo Fisher) and goat anti-chicken Alexa Fluor 555 (1:250, A-21437; Thermo Fisher). Cells on coverslips were treated with 300 nM 4′,6-diamidino-2-phenylindole (DAPI) for 5 min at 21 °C. Coverslips were mounted on glass slides with ProLong Diamond mounting reagent (Thermo Fisher) and cured before imaging on a Zeiss LSM 880 Upright microscope. All images were analyzed and prepared in Fiji ([53]).
All immunofluorescence data were averaged over three biological replicates. Cells not expressing both Pdx1 and SPOP were excluded from sampling. Raw images were collected in the Zeiss Zen software and then exported for viewing and analysis in Fiji. Nuclei of individual cells were designated manually in Fiji using the DAPI channel as a guide. The cells were binned based on whether SPOP was localized to nuclear speckles (puncta); cells with both diffuse and punctate SPOP signal were binned as “speckled.” The grayscale signal intensity of the green channel (Pdx1–GFP) was averaged over the DAPI-designated nuclear area. Next, the raw GFP intensity data points (one data point per cell analyzed) were plotted to generate a violin plot distribution. The average, minimum, and maximum values are shown by horizontal lines on the plot. Individual data points are also shown for rigor. […] All plotting and statistical tests were performed using in-house python scripts that can be found at https://github.com/idpemery/spop-pdx1.

Pdx1: full-length human Pdx1 (amino acids 1-283) with a C-terminal GFP tag
localization / phase separation in cells [1]: did not undergo observable partitioning to any nuclear body; also recorded: do not form phase-separated compartments in cells | localization / phase separation in cells ([1]; listed as GFP–Pdx1): does not localize to punctate structures in cells; also recorded: localizes to the nucleus (marked by DAPI, blue) and does not perturb the formation of or partition to nuclear speckles | ubiquitination of Pdx1 variant ([2]; listed as GFP–Pdx1–WT): is ubiquitinated in cells | ubiquitination of Pdx1 variant ([2]; listed as Pdx1–WT): robust polyubiquitination | V5-SPOP localization, high Pdx1 expression [3]: SPOP is diffuse | V5-SPOP localization, high Pdx1 expression ([3]; listed as WT–Pdx1): primarily diffuse V5-SPOP | V5-SPOP localization, low Pdx1 expression [3]: SPOP localizes to nuclear speckles | V5-SPOP localization, low Pdx1 expression ([3]; listed as WT–Pdx1): V5-SPOP localizes to nuclear speckles | SPOP relocalization from nuclear speckles by Pdx1 variant [3]: relocalization of SPOP from nuclear speckles | SPOP relocalization from nuclear speckles by Pdx1 variant ([3]; listed as GFP–Pdx1–WT): SPOP relocalized from nuclear speckles into the diffuse nucleoplasm
